Converted amounts (≈) assume the structure as drawn.
How the values were obtained:
[1] = tested on: ribosome erm-dimethylated at A2058; assay: binding to the ribosome
[2] = tested on: S. pneumoniae; assay type: cell-based
[3] = tested on: S. aureus; assay type: cell-based

Compound: CC[C@H]1OC(=O)[C@H](C)[C@@H](OC2CC(C)(OC)C(O)C(C)O2)[C@H](C)[C@@H](OC2OC(C)CC(N(C)C)C2O)[C@@](C)(OC)C[C@@H](C)C(=O)[C@H](C)[C@H]2N(CCCCn3cc(-c4cccc(N)c4)nn3)C(=O)O[C@]12C (stereo partly drawn) [Entry 20c]
- binding to the ribosome [1]: considerable binding
- MIC [2]: ≦0.0625 μg/mL
- MIC [3]: 8 µg/mL (≈ 8.1 µM)
